Results published in patent US9770462B2, “Method of treating ovarian, tubal and peritoneal cancer” (NATIONAL CHENG KUNG UNIVERSITY, priority 2015, dated 2017).

Tests used:
[1] = test system: cDDP^R cell lines (2008-cp, A172-cp and SR2) and cDDP^S cell lines (2008, A172 and SCLC); assay: Sensitization to platinum drugs in the absence or presence of copper chelator; assay type: cell-based, human; conditions: copper chelator treated cDDP^R cells with enhanced hCtr1 expression
Procedure: Furthermore, ^64Cu uptake and platinum (Pt) uptake, and sensitization to cisplatin and carboplatin in three pairs of cDDP^R cell lines (2008-cp, A172-cp and SR2) and cDDP^S cell lines (2008, A172 and SCLC) in the absence or presence of copper chelator (5 μmol/L of TM, 100 μmol/L of trientine or 100 μmol/L of D-pen) were evaluated.

[2] = test system: ovarian cancer cells; assay: Cisplatin cytotoxicity (IC50) in the presence or absence of copper histidine; assay type: cell-based; conditions: copper ions 3000 μM, 24 hours
Procedure: The cytotoxicity of shControl cells (shControl), IMP3 knockdown cells (shIMP3-268, shIMP3-596) and Lin28B knockdown cells (shLin28B-860, shLin28B-508) in response to cisplatin was determined using the WST-1 (TaKaRa) assay. In brief, 3×10^4 ovarian cancer cells/well were grown in 96-well plates overnight and treated with cisplatin at various concentrations in the presence or absence of copper ions (3000 μM) (Copper Histidine) for 24 hours. After incubation, the […] was used to determine the IC50 of cisplatin. Dose-inhibition curves and the IC50 of cisplatin were calculated for the different cell types using commercial software (SigmaPlot V10.0, Systat Software, Inc., Richmond, Calif., USA). A copper histidine solution was prepared. In brief, copper(II) chloride (0.106 g; Sigma-Aldrich) and L-histidine (0.244 g; Sigma-Aldrich) were dissolved in 90 ml of sterile 0.9% sodium chloride, titrated to a pH of […] to 7.40, and then filtered through a 0.22-μm filter before use.

N.N.[Cl][Pt][Cl] [cisplatin]
sensitivity of cells to the platinum drug [1]: higher increases

N[C@@H](Cc1c[nH]cn1)C(=O)O.[Cu] [copper histidine]
IC50 of cisplatin when combined with copper histidine ([2]; IMP3- or Lin28B-knockdown cells, p<0.05): increased
IC50 of cisplatin when combined with copper histidine ([2]; shControl cells): no significant (NS) effect

N.N.O=C([O-])C1(C(=O)[O-])CCC1.[Pt+2] [carboplatin]
sensitivity of cells to the platinum drug [1]: increased sensitivity

O=C1[O][Pt]2([NH][C@@H]3CCCC[C@H]3[NH]2)[O]C1=O [oxaliplatin]
sensitivity of cells to the platinum drug [1]: not
